Values joined by “and” are separate entries in the source; they are usually repeats but may differ in a detail not shown here. Identical values can stand only once. Marks after values point to notes of the source that are not given here.
What was measured:
Format in all cases: cell-based
[1] = tested on: LC3; test: LC3 marker assay (LC3-I to LC3-II conversion immunoblot); design: key: −: activity not reported; 0: decreased vs. WT; +: similar to WT; ++: modest increase vs. WT; +++: significant increase vs. WT; conditions: for Activity (μM) 10, LC3 assay activity: 10 μM; for Activity (μM) 30, LC3 assay activity: 30 μM; for Activity (μM) 50, LC3 assay activity: 50 μM; for Activity (μM) 100, LC3 assay activity: 100 μM; for Activity (μM) 20, LC3 assay activity: 20 μM; for Activity (μM) 10, starred cell, LC3 assay activity / Activity (μM) 30, starred cell, LC3 assay activity: Table 8; for Activity (μM) 10, starred cell, LC3 assay activity: 10 μM marked * (footnote: data taken at 20 instead of 30 μM); for Activity (μM) 30, starred cell, LC3 assay activity: *Data taken at 20 instead of 30 μM
[2] = tested on: p62; test: p62 degradation assay (p62/actin immunoblot); design: key: −: activity not reported; 0: decreased vs. WT; +: similar to WT; ++: modest increase vs. WT; +++: significant increase vs. WT; conditions: for Activity (μM) 10, p62/actin assay activity: 10 μM; for Activity (μM) 30, p62/actin assay activity: 30 μM; for Activity (μM) 50, p62/actin assay activity: 50 μM; for Activity (μM) 100, p62/actin assay activity: 100 μM; for Activity (μM) 20, p62/actin assay activity: 20 μM; for Activity (μM) 10, starred cell, p62/actin assay activity / Activity (μM) 30, starred cell, p62/actin assay activity: Table 8; for Activity (μM) 10, starred cell, p62/actin assay activity: 10 μM marked * (footnote: data taken at 20 instead of 30 μM); for Activity (μM) 30, starred cell, p62/actin assay activity: *Data taken at 20 instead of 30 μM
[3] = tested on: HeLa cells; test: Autophagy induction judged by p62 and LC3 immunoblots together; design: key to Activity compared to wild-type WT / Activity (μM) 10, single symbol / Activity (μM) 30, single symbol / Activity (μM) 50, single symbol / Activity (μM) 100, single symbol: −: activity not reported; 0: decreased vs. WT; +: similar to WT; ++: modest increase vs. WT; +++: significant increase vs. WT; conditions: for Activity (μM) 10, single symbol: 10 μM; for Activity (μM) 30, single symbol: 30 μM; for Activity (μM) 50, single symbol: 50 μM; for Activity (μM) 100, single symbol: 100 μM
Experimental: This 10-mer sequence was substituted with various thiol-containing amino acids at various positions, and then cross-linked with various linkers as described above (FIG. 5, a and FIG. 6).
Cells were treated with peptide in OPTI-MEM (Thermo Scientific) acidified with 0.15% (v/v) 6N HCl for 3 hour. Cells were rinsed with Dulbecco's phosphate buffered saline (PBS) and lysed in lysis buffer (20 mM HEPES, 150 mM NaCl, 1 mM EDTA, 1% Triton X-100, protease inhibitor cocktail (Roche) on ice for 1 hour. Cell lysates were centrifuged at 16,000 g for 10 min at 4° C. and analyzed by SDS-PAGE and transferred to PVDF membranes. The membranes were blocked 5% non-fat dry milk (NFDM) in PBST (PBS+0.05% Tween-20) for 1 hour, then incubated overnight at 4° C. with primary antibody in 5% NFDM in PBST. The blots were washed with PBST and incubated with HRP-conjugated secondary antibodies diluted in 5% NFDM in PBST for 1 hour at room temperature. Membranes were washed with PBST and visualized with SuperSignal West Pico Chemiluminescent Substrate (Thermo Scientific). Semi-quantitative results were obtained by noting the lowest concentration at which both p62 degradation and LC3-I to LC3-II conversion were observed.
(SEQ ID NO: 16)-Sequence. […] The N-terminus was capped with an acetyl group while the C terminus was capped with a —C(O)—NH2 group. The activity reported is a summation of results from both the p62 degradation assay and the LC3 marker assay.

[4] = Table 5, control compound T25, second symbol
[5] = Table 6, control DMSO, second symbol
[6] = Table 5, control compound T25, first symbol
[7] = Table 6, control DMSO, first symbol
[8] = Table 3, control vehicle, second symbol of cell
[9] = Table 4, control inactive Tat-Beclin mutant, second symbol
[10] = Table 3, control vehicle, second symbol
[11] = Table 8, control compound T25, second symbol
[12] = Table 3, control vehicle, first symbol of cell
[13] = Table 4, control inactive Tat-Beclin mutant, first symbol
[14] = Table 3, control vehicle, first symbol
[15] = Table 8, control compound T25, first symbol
[16] = Table 4, starred rows (asterisk not explained)

VCNATCHIWH [Compound 16]
++: Activity (μM) 10, LC3 assay activity [1, 4] | Activity (μM) 30, LC3 assay activity [1, 4] | Activity (μM) 50, LC3 assay activity [1, 4] | Activity (μM) 100, LC3 assay activity [1, 4] | Activity (μM) 10, p62/actin assay activity [2, 7] | Activity (μM) 50, single symbol ([3]; Table 5) | Activity (μM) 100, single symbol ([3]; Table 5)
+++: Activity (μM) 30, p62/actin assay activity [2, 7] | Activity (μM) 50, p62/actin assay activity [2, 7] | Activity (μM) 100, p62/actin assay activity [2, 7]
+: Activity (μM) 10, LC3 assay activity [1, 5] | Activity (μM) 30, LC3 assay activity [1, 5] | Activity (μM) 50, LC3 assay activity [1, 5] | Activity (μM) 100, LC3 assay activity [1, 5] | Activity (μM) 30, single symbol ([3]; Table 5)
0: Activity (μM) 10, p62/actin assay activity [2, 6] | Activity (μM) 30, p62/actin assay activity [2, 6] | Activity (μM) 50, p62/actin assay activity [2, 6] | Activity (μM) 100, p62/actin assay activity [2, 6] | Activity (μM) 10, single symbol ([3]; Table 5)

VCNATCHIWH [Compound 1]
+: Activity (μM) 30, LC3 assay activity [1, 9] | Activity (μM) 100, LC3 assay activity [1, 10] | Activity (μM) 100, LC3 assay activity [1, 11]
0/0 and ++: Activity (μM) 30, p62/actin assay activity [2, 15]
0/0 and +++: Activity (μM) 30, LC3 assay activity [1, 11]
0/0: Activity (μM) 10, LC3 assay activity [1, 8] | Activity (μM) 10, LC3 assay activity [1, 9] | Activity (μM) 20, LC3 assay activity [1, 10] | Activity (μM) 50, LC3 assay activity [1, 10] | Activity (μM) 10, p62/actin assay activity [2, 12] | Activity (μM) 10, p62/actin assay activity [2, 13] | Activity (μM) 20, p62/actin assay activity [2, 14] | Activity (μM) 50, p62/actin assay activity [2, 14]
++: Activity (μM) 50, LC3 assay activity [1, 9]
+++: Activity (μM) 100, p62/actin assay activity [2, 14] | Activity (μM) 100, p62/actin assay activity [2, 15]
0: Activity (μM) 30, p62/actin assay activity [2, 13] | Activity (μM) 50, p62/actin assay activity [2, 13] | Activity (μM) 100, p62/actin assay activity [2, 13] | Activity (μM) 10, single symbol [3, 16] | Activity (μM) 30, single symbol [3, 16] | Activity (μM) 50, single symbol [3, 16] | Activity (μM) 100, single symbol [3, 16]
0/0* and 0: Activity (μM) 10, starred cell, p62/actin assay activity ([2]; first symbol)
0/0* and +: Activity (μM) 10, starred cell, LC3 assay activity ([1]; second symbol)
0/0 and +++/+++: Activity (μM) 50, LC3 assay activity [1, 11] | Activity (μM) 50, p62/actin assay activity [2, 15]

VFNATFEIWH [Compound T25]
+++: Activity (μM) 5, LC3 assay activity ([1]; 5 μM, Table 8, control compound T25, second symbol) | Activity (μM) 10, LC3 assay activity [1, 11] | Activity (μM) 30, single symbol ([3]; Table 7, one symbol only)
++: Activity (μM) 5, p62/actin assay activity ([2]; 5 μM, Table 8, control compound T25, first symbol) | Activity (μM) 10, p62/actin assay activity [2, 15] | Activity compared to wild-type WT ([3]; Tat-linked linear peptides, summation of p62 degradation assay and LC3 marker assay)
+++/+++*: Activity (μM) 30, starred cell, LC3 assay activity ([1]; second symbol) | Activity (μM) 30, starred cell, p62/actin assay activity ([2]; first symbol)

VCNATCHIWH [Compound 15]
+++/+++: Activity (μM) 100, LC3 assay activity [1, 4] | Activity (μM) 100, p62/actin assay activity [2, 6]
+++: Activity (μM) 30, p62/actin assay activity [2, 7] | Activity (μM) 50, p62/actin assay activity [2, 7] | Activity (μM) 100, p62/actin assay activity [2, 7] | Activity (μM) 50, single symbol ([3]; Table 5) | Activity (μM) 100, single symbol ([3]; Table 5)
++/++: Activity (μM) 10, LC3 assay activity [1, 5] | Activity (μM) 50, LC3 assay activity [1, 4] | Activity (μM) 10, p62/actin assay activity [2, 7] | Activity (μM) 50, p62/actin assay activity [2, 6]
+: Activity (μM) 30, LC3 assay activity [1, 5] | Activity (μM) 50, LC3 assay activity [1, 5] | Activity (μM) 100, LC3 assay activity [1, 5] | Activity (μM) 30, single symbol ([3]; Table 5)
0/0: Activity (μM) 10, LC3 assay activity [1, 4] | Activity (μM) 10, p62/actin assay activity [2, 6]
0: Activity (μM) 10, single symbol ([3]; Table 5)
+/+: Activity (μM) 30, LC3 assay activity [1, 4] | Activity (μM) 30, p62/actin assay activity [2, 6]

VCNACFHIWH [Compound 3]
++: Activity (μM) 10, LC3 assay activity [1, 9] | Activity (μM) 50, p62/actin assay activity [2, 14]
0 and +++/+++: Activity (μM) 50, LC3 assay activity [1, 11]
0/0*: Activity (μM) 10, starred cell, LC3 assay activity ([1]; second symbol) | Activity (μM) 10, starred cell, p62/actin assay activity ([2]; first symbol)
+ and +++/+++: Activity (μM) 50, p62/actin assay activity [2, 15]
+++: Activity (μM) 20, LC3 assay activity [1, 10] | Activity (μM) 30, LC3 assay activity [1, 9] | Activity (μM) 50, LC3 assay activity [1, 10]
+++/+++: Activity (μM) 100, LC3 assay activity [1, 10] | Activity (μM) 100, LC3 assay activity [1, 11] | Activity (μM) 100, p62/actin assay activity [2, 14] | Activity (μM) 100, p62/actin assay activity [2, 15]
0: Activity (μM) 10, p62/actin assay activity [2, 13] | Activity (μM) 30, p62/actin assay activity [2, 13] | Activity (μM) 50, p62/actin assay activity [2, 13] | Activity (μM) 10, single symbol [3, 16] | Activity (μM) 30, single symbol [3, 16] | Activity (μM) 50, single symbol [3, 16] | Activity (μM) 100, single symbol [3, 16]
+: Activity (μM) 50, LC3 assay activity [1, 9] | Activity (μM) 20, p62/actin assay activity [2, 14]
0/0: Activity (μM) 10, LC3 assay activity [1, 8] | Activity (μM) 30, LC3 assay activity [1, 11] | Activity (μM) 100, LC3 assay activity [1, 9] | Activity (μM) 10, p62/actin assay activity [2, 12] | Activity (μM) 30, p62/actin assay activity [2, 15] | Activity (μM) 100, p62/actin assay activity [2, 13]

VCNATCHIWH [Compound 17]
+++/+++*: Activity (μM) 30, starred cell, LC3 assay activity ([1]; second symbol) | Activity (μM) 30, starred cell, p62/actin assay activity ([2]; first symbol)
+++: Activity (μM) 10, LC3 assay activity [1, 11] | Activity (μM) 10, p62/actin assay activity [2, 6] | Activity (μM) 30, p62/actin assay activity [2, 7] | Activity (μM) 50, p62/actin assay activity [2, 7] | Activity (μM) 100, p62/actin assay activity [2, 7] | Activity (μM) 50, single symbol ([3]; Table 5) | Activity (μM) 100, single symbol ([3]; Table 5)
++: Activity (μM) 10, LC3 assay activity [1, 5] | Activity (μM) 30, LC3 assay activity [1, 5] | Activity (μM) 50, LC3 assay activity [1, 5] | Activity (μM) 10, p62/actin assay activity [2, 15] | Activity (μM) 30, p62/actin assay activity [2, 6] | Activity (μM) 50, p62/actin assay activity [2, 6] | Activity (μM) 100, p62/actin assay activity [2, 6] | Activity (μM) 30, single symbol ([3]; Table 5)
+: Activity (μM) 50, LC3 assay activity [1, 4] | Activity (μM) 100, LC3 assay activity [1, 5] | Activity (μM) 10, p62/actin assay activity [2, 7]
0: Activity (μM) 10, LC3 assay activity [1, 4] | Activity (μM) 30, LC3 assay activity [1, 4] | Activity (μM) 100, LC3 assay activity [1, 4] | Activity (μM) 10, single symbol ([3]; Table 5)

Reference: US10993983B2, “Cyclic peptide epitopes and small-molecule mimics for inducing autophagy” (TRUSTEES OF TUFTS COLLEGE, priority 2016, dated 2021)
